Results on four compounds are retold here after EP0672658B1, “Antithrombotic agents” (priority 1994, dated 1995).

Counter-ions that a name gives are not always drawn.
For % oral/i.v. activity (Rat) in this document: key: NC^1 indicates screening not completed; low or very low activity obsrved at 20 mg/kg p.o; NC^2 indicates screening not completed; low or very low activity observed at 60 mg/kg p.o; NC^3 indicates screening not completed; low or very low activity observed at 50 mg/kg p.o.

Chain of factor Xa (P00742 235-488 limits assumed): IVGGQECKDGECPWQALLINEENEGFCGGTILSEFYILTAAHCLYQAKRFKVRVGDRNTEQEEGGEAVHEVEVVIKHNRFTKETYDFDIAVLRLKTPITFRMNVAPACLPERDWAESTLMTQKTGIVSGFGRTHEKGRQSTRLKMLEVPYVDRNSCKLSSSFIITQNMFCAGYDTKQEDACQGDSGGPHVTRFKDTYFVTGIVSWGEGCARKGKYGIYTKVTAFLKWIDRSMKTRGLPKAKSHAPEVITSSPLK
Chain of factor Xa (P00742 41-179 partner limits assumed): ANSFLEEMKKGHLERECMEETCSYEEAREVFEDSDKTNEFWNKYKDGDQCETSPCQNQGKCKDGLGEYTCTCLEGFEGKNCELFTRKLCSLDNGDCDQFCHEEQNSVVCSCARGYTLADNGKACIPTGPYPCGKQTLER

For the first data set, the system named is human or animal plasma. The experiment in a line: Anticoagulation determination in plasma: thrombin time (TT). The format is biochemical. Particulars: concentration doubling thrombin time. The method, boiled down: (§1)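 Compounds spiked over a concentration range into citrated human, dog or rat plasma. PT used Thromboplastin-C; APTT used Actin reagent 120 s then 0.02 M CaCl2; TT used bovine thrombin 10 NIH units/mL. Concentration doubling clotting time estimated by linear extrapolation.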
With `N=C(N)c1ccc(CNC(=O)[C@@H]2CCCN2C(=O)[C@H]2C[C@H]3CCCC[C@H]3CN2)cc1` [Example 19, D-3-Piq-Pro-p-NHCH2C6H4C(NH)NH2·3HCl], the “Human Plasma Anticoagulation 2x Clotting time (ng/mL) TT” value turned out to be 58 ng/mL.
Still for that read-out and setting: as for `Nc1ccc(CNC(=O)[C@@H]2CCCN2C(=O)[C@@H](CC2CCCCC2)NCC(=O)O)c(F)c1` [Example 64, HO2CCH2-D-Cha-Pro-4-NHCH2-3-F-C6H3NH2·HCl], the figure is 23 ng/mL; as for `N=C(N)c1ccc(CNC(=O)[C@@H]2CCCN2C(=O)[C@@H](CC2CCCCC2)NCCC(=O)O)cc1` [Example 52, HOOCCH2CH2-D-Cha-Pro-p-NHCH2C6H4C(NH)NH2·HCl], 6 ng/mL.
With `N=C(N)c1cccc(CCCNC(=O)[C@@H]2CCCN2C(=O)[C@@H]2NCC[C@@H]3CCCC[C@@H]32)c1` [Example 33, 1-Piq-Pro-m-NHCH2CH2CH2-C6H4C(=NH)NH2·HCl], the “Human Plasma Anticoagulation 2x Clotting time (ng/mL) TT” value is on record as 18,900 ng/mL.

For the next data set, the target named is factor Xa (Homo sapiens, UniProt P00742). The data set can be described thus: biochemical. Particulars: read-out: Kass Xa (converted). The method, boiled down:
(§2)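 Bovine trypsin and human factor Xa amidase activity measured chromogenically, following the human thrombin procedure. Substrates: N-Benzoyl-Ile-Glu-Gly-Arg-p-nitroanilide for factor Xa and N-Benzoyl-Phe-Val-Arg-p-nitroanilide for trypsin. Used for selectivity profiling.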
Take `N=C(N)c1ccc(CNC(=O)[C@@H]2CCCN2C(=O)[C@H]2C[C@H]3CCCC[C@H]3CN2)cc1` [Example 19, D-3-Piq-Pro-p-NHCH2C6H4C(NH)NH2·3HCl]: the Kd is 7.14 µM.
The same measure, in the same setting: as for `Nc1ccc(CNC(=O)[C@@H]2CCCN2C(=O)[C@@H](CC2CCCCC2)NCC(=O)O)c(F)c1` [Example 64, HO2CCH2-D-Cha-Pro-4-NHCH2-3-F-C6H3NH2·HCl], the figure is 100 µM; as for `N=C(N)c1ccc(CNC(=O)[C@@H]2CCCN2C(=O)[C@@H](CC2CCCCC2)NCCC(=O)O)cc1` [Example 52, HOOCCH2CH2-D-Cha-Pro-p-NHCH2C6H4C(NH)NH2·HCl], 2.17 µM.
On the same count and under the same terms, next, `N=C(N)c1cccc(CCCNC(=O)[C@@H]2CCCN2C(=O)[C@@H]2NCC[C@@H]3CCCC[C@@H]32)c1` [Example 33, 1-Piq-Pro-m-NHCH2CH2CH2-C6H4C(=NH)NH2·HCl]: 25 µM.

Another data set deals with t-PA (Homo sapiens, UniProt P00750). The experiment in a line: biochemical. Particulars: read-out: Kass t-PA (converted). The method, boiled down: (§3)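 Amidase activity of human plasmin and t-PA (nt-PA single-chain; mt-PA6) was measured by a chromogenic method adapted from a thrombin assay. Substrates were H-D-Val-Leu-Lys-p-nitroanilide for plasmin and H-D-Ile-Pro-Arg-p-nitroanilide for t-PA.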
Chain of t-PA (P00750 36-562): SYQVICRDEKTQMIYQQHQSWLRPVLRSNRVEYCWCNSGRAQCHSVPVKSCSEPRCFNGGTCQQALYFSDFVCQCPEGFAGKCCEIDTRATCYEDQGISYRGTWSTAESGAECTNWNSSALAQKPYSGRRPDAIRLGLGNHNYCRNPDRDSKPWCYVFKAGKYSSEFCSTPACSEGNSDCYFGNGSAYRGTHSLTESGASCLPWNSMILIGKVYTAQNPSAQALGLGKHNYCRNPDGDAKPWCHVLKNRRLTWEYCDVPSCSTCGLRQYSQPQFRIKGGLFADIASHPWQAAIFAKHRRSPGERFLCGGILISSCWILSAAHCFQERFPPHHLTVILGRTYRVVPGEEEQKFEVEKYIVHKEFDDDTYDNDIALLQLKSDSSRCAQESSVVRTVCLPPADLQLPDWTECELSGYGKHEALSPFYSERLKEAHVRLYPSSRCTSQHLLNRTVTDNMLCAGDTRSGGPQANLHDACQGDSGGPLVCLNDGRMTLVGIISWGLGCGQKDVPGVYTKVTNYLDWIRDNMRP
In the case of `N=C(N)c1ccc(CNC(=O)[C@@H]2CCCN2C(=O)[C@H]2C[C@H]3CCCC[C@H]3CN2)cc1` [Example 19, D-3-Piq-Pro-p-NHCH2C6H4C(NH)NH2·3HCl], the Kd was 179 µM.
Take `N=C(N)c1ccc(CNC(=O)[C@@H]2CCCN2C(=O)[C@@H](CC2CCCCC2)NCCC(=O)O)cc1` [Example 52, HOOCCH2CH2-D-Cha-Pro-p-NHCH2C6H4C(NH)NH2·HCl]: the Kd is 100 µM.
On to `N=C(N)c1cccc(CCCNC(=O)[C@@H]2CCCN2C(=O)[C@@H]2NCC[C@@H]3CCCC[C@@H]32)c1` [Example 33, 1-Piq-Pro-m-NHCH2CH2CH2-C6H4C(=NH)NH2·HCl], for which the Kd is more than 1000 µM.

The target in a further data set is T1, Plasmin (Homo sapiens, UniProt P00747).
T1 construct: Human plasmin is purchased; purchased Boehringer Mannheim, Indianapolis, Indiana
T1 sequence (P00747 581-810 limits assumed): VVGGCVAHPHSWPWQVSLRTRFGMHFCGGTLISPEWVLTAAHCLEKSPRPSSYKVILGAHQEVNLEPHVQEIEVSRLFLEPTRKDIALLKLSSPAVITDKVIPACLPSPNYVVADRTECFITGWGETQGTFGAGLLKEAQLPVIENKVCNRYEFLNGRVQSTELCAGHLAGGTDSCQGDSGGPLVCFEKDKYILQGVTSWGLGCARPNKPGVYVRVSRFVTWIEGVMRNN
T1 sequence (P00747 97-580 partner limits assumed): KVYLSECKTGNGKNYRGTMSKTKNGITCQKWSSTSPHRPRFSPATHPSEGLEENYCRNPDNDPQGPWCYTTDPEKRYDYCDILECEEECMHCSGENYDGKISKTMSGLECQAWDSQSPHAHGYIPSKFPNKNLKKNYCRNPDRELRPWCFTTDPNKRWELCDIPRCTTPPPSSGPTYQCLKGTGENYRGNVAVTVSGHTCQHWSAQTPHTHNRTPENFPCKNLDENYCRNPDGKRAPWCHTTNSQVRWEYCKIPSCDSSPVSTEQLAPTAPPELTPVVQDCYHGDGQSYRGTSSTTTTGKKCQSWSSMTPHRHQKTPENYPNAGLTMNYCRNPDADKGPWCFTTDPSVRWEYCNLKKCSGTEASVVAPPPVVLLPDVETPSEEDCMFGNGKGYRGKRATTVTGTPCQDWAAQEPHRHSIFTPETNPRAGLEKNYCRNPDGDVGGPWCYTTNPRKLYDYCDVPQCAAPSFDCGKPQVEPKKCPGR
The data set can be described thus: biochemical. Particulars: read-out: Kass Plasmin (converted). The method, boiled down: as §3
Take `N=C(N)c1ccc(CNC(=O)[C@@H]2CCCN2C(=O)[C@H]2C[C@H]3CCCC[C@H]3CN2)cc1` [Example 19, D-3-Piq-Pro-p-NHCH2C6H4C(NH)NH2·3HCl]: the Kd was 6.25 µM.
On to `N=C(N)c1ccc(CNC(=O)[C@@H]2CCCN2C(=O)[C@@H](CC2CCCCC2)NCCC(=O)O)cc1` [Example 52, HOOCCH2CH2-D-Cha-Pro-p-NHCH2C6H4C(NH)NH2·HCl], for which the Kd is 9.09 µM.
Take `N=C(N)c1cccc(CCCNC(=O)[C@@H]2CCCN2C(=O)[C@@H]2NCC[C@@H]3CCCC[C@@H]32)c1` [Example 33, 1-Piq-Pro-m-NHCH2CH2CH2-C6H4C(=NH)NH2·HCl]: the Kd is more than 1000 µM.

The target in a further data set is Human Thrombin (Homo sapiens, UniProt P00734). The data set can be described thus: biochemical. The following applies: read-out: Kass Human Thrombin (converted).
`N=C(N)c1ccc(CNC(=O)[C@@H]2CCCN2C(=O)[C@H]2C[C@H]3CCCC[C@H]3CN2)cc1` [Example 19, D-3-Piq-Pro-p-NHCH2C6H4C(NH)NH2·3HCl]: the Kd is 0.0909 µM.
For `Nc1ccc(CNC(=O)[C@@H]2CCCN2C(=O)[C@@H](CC2CCCCC2)NCC(=O)O)c(F)c1` [Example 64, HO2CCH2-D-Cha-Pro-4-NHCH2-3-F-C6H3NH2·HCl], the Kd is 0.0667 µM.
Still for that read-out and setting: as for `N=C(N)c1ccc(CNC(=O)[C@@H]2CCCN2C(=O)[C@@H](CC2CCCCC2)NCCC(=O)O)cc1` [Example 52, HOOCCH2CH2-D-Cha-Pro-p-NHCH2C6H4C(NH)NH2·HCl], the figure is 0.00143 µM; as for `N=C(N)c1cccc(CCCNC(=O)[C@@H]2CCCN2C(=O)[C@@H]2NCC[C@@H]3CCCC[C@@H]32)c1` [Example 33, 1-Piq-Pro-m-NHCH2CH2CH2-C6H4C(=NH)NH2·HCl], 25 µM.

System in a further data set: not listed separately
The experiment in a line: in vivo. Also on record: species or system rats. The following applies: screening not completed, activity after p.o. dose given in the legend. From the text: Each sample population represented alternating sequential time points.
As to `Nc1ccc(CNC(=O)[C@@H]2CCCN2C(=O)[C@@H](CC2CCCCC2)NCC(=O)O)c(F)c1` [Example 64, HO2CCH2-D-Cha-Pro-4-NHCH2-3-F-C6H3NH2·HCl], the “% oral/i.v. activity (Rat)” value is given as “NC^3”.

The next data set deals with human or animal plasma. The data set can be described thus: Anticoagulation determination in plasma: activated partial thromboplastin time (APTT). It is filed as biochemical. The following applies: concentration doubling activated partial thromboplastin time. The method, boiled down:
as §1
Regarding `N=C(N)c1ccc(CNC(=O)[C@@H]2CCCN2C(=O)[C@H]2C[C@H]3CCCC[C@H]3CN2)cc1` [Example 19, D-3-Piq-Pro-p-NHCH2C6H4C(NH)NH2·3HCl], the “Human Plasma Anticoagulation 2x Clotting time (ng/mL) APTT” value turned out to be 300 ng/mL.
Regarding `Nc1ccc(CNC(=O)[C@@H]2CCCN2C(=O)[C@@H](CC2CCCCC2)NCC(=O)O)c(F)c1` [Example 64, HO2CCH2-D-Cha-Pro-4-NHCH2-3-F-C6H3NH2·HCl], the “Human Plasma Anticoagulation 2x Clotting time (ng/mL) APTT” value is recorded as 900 ng/mL.
`N=C(N)c1ccc(CNC(=O)[C@@H]2CCCN2C(=O)[C@@H](CC2CCCCC2)NCCC(=O)O)cc1` [Example 52, HOOCCH2CH2-D-Cha-Pro-p-NHCH2C6H4C(NH)NH2·HCl]: the “Human Plasma Anticoagulation 2x Clotting time (ng/mL) APTT” value amounted to 80 ng/mL.
Take `N=C(N)c1cccc(CCCNC(=O)[C@@H]2CCCN2C(=O)[C@@H]2NCC[C@@H]3CCCC[C@@H]32)c1` [Example 33, 1-Piq-Pro-m-NHCH2CH2CH2-C6H4C(=NH)NH2·HCl]: the “Human Plasma Anticoagulation 2x Clotting time (ng/mL) APTT” value is given as 59,300 ng/mL.

The test system of the next data set is human or animal plasma. The experiment in a line: Anticoagulation determination in plasma: prothrombin time (PT). The format is biochemical. The following applies: concentration doubling prothrombin time. The method, boiled down:
as §1
As to `N=C(N)c1ccc(CNC(=O)[C@@H]2CCCN2C(=O)[C@H]2C[C@H]3CCCC[C@H]3CN2)cc1` [Example 19, D-3-Piq-Pro-p-NHCH2C6H4C(NH)NH2·3HCl], the “Human Plasma Anticoagulation 2x Clotting time (ng/mL) PT” value is listed as 540 ng/mL.
Take `Nc1ccc(CNC(=O)[C@@H]2CCCN2C(=O)[C@@H](CC2CCCCC2)NCC(=O)O)c(F)c1` [Example 64, HO2CCH2-D-Cha-Pro-4-NHCH2-3-F-C6H3NH2·HCl]: the “Human Plasma Anticoagulation 2x Clotting time (ng/mL) PT” value came to 650 ng/mL.
As to `N=C(N)c1ccc(CNC(=O)[C@@H]2CCCN2C(=O)[C@@H](CC2CCCCC2)NCCC(=O)O)cc1` [Example 52, HOOCCH2CH2-D-Cha-Pro-p-NHCH2C6H4C(NH)NH2·HCl], the “Human Plasma Anticoagulation 2x Clotting time (ng/mL) PT” value amounted to 170 ng/mL.
Regarding `N=C(N)c1cccc(CCCNC(=O)[C@@H]2CCCN2C(=O)[C@@H]2NCC[C@@H]3CCCC[C@@H]32)c1` [Example 33, 1-Piq-Pro-m-NHCH2CH2CH2-C6H4C(=NH)NH2·HCl], the “Human Plasma Anticoagulation 2x Clotting time (ng/mL) PT” value is 70,900 ng/mL.

A further data set concerns the target T2, Trypsin (Bos taurus, UniProt P00760).
T2 sequence (P00760 24-246): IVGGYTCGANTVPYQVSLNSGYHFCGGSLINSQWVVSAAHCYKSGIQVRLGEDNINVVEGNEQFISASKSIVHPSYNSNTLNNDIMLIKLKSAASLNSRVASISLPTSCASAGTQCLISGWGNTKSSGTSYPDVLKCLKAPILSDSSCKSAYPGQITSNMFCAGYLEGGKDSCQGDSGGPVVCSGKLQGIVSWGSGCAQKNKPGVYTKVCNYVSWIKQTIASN
The experiment in a line: biochemical. Also on record: species or system Bovine. Particulars: read-out: Kass Trypsin (converted). The method, boiled down: as §2
Take `N=C(N)c1ccc(CNC(=O)[C@@H]2CCCN2C(=O)[C@H]2C[C@H]3CCCC[C@H]3CN2)cc1` [Example 19, D-3-Piq-Pro-p-NHCH2C6H4C(NH)NH2·3HCl]: the Kd was 0.0244 µM.
For the compound `N=C(N)c1ccc(CNC(=O)[C@@H]2CCCN2C(=O)[C@@H](CC2CCCCC2)NCCC(=O)O)cc1` [Example 52, HOOCCH2CH2-D-Cha-Pro-p-NHCH2C6H4C(NH)NH2·HCl], the Kd is 0.0213 µM.
For the compound `N=C(N)c1cccc(CCCNC(=O)[C@@H]2CCCN2C(=O)[C@@H]2NCC[C@@H]3CCCC[C@@H]32)c1` [Example 33, 1-Piq-Pro-m-NHCH2CH2CH2-C6H4C(=NH)NH2·HCl], the Kd is 50 µM.
